Literature values in patent US20120269871A1, “SOLID STATE FORMS OF RASAGILINE SALTS” (ACTAVIS GROUP PTC EHF, priority 2009, published 2012).

solubility in ethanol (solvent: ethanol): freely soluble | solubility in isopropanol (solvent: isopropanol): sparingly soluble | solubility in water (solvent: water): freely soluble
SMILES: C#CCN[C@@H]1CCc2ccccc21.CS(=O)(=O)O [Rasagiline mesylate]
